{
  "source": "patent US4425356A",
  "about": "“Lankacidin derivatives used in swine husbandry” (Takeda Chemical Industries, Ltd., priority 1980, dated 1984)",
  "key": {"Treponema hyodysenteriae": {"system": "Treponema hyodysenteriae", "assay": "efficacy in experimental infection in mice with swine dysentery, Test Example 4", "type": "in vivo", "settings": "5 mg/kg/day oral, day 1 to day 4; seven days after infection", "method": "Lankacidin A, lankacidin C, lankacidin C 8-acetate, lankacidin C 14-propionate, lankacidinol A and lankacidinol were tested for efficacy against swine dysentery in experimental infection in mice with swine dysentery.\nThe similar experimental infection model of swine dysentery in mice as that described, for example, by Joens et al. in Infection and Immunity, 25, 757-760 (1979), American Journal of Veterinary Research, 41, 1225-1226 (1980) and Veterinary Record, 107, 527-529 (1980) was used. Thus, a field isolate of Treponema hyodysenteriae anaerobically cultivated on the 5% defibrinated horse blood added Trypticase soy agar (BBL) plate was mashed together with the culture medium and diluted two-fold with Trypticase soy broth (BBL). Mice were inoculated intragastrically with this infecting dilution. Each test agent was suspended in 5% gum arabic solution and forcibly administered orally from day 1 to day 4 following infection. Seven days after infection, the cecum was examined for lesions, and the cecum was mashed together with the contents and subjected to Treponema hyodysenteriae counting. Excellent efficacy was produced in each of the drug-administered groups."}, "[1]": {"assay": "growth of pigs, 5-month continuous dietary administration, Test Examples 10-11", "type": "in vivo, Landrace pigs", "settings": "for Body weight at end / Body weight at feed exchange / Body weight gain for starter feed period / Body weight gain for whole period / Feed conversion for starter feed period / Feed conversion for whole period / Feed intake for starter feed period / Feed intake for whole period: mean per head; for growth and feed efficiency (in words): dietary, 5 months", "method": "Effects of compound (I) on the growth of pigs under the conditions in which swine dysentery was absent were examined. Thus, 40 one-month-old Landrace pigs (5 litters) were used in groups each consisting of 8 (4 males and 4 females). Lankacidin C was added in concentrations of 0 (control), 1, 2.5, 5 and 10 ppm to antibacterial agent-free starter feed for the period from the start of the test through the age of 3 months and to the feed for testing pigs for performance of meat production (also free of antibacterial agents) for the period from the age of 4 months to the age of 6 months (end). Thus, in each group, dietary lankacidin C was administered continuously for 5 months.\nThe data are each the mean value per head. Different alphabetic letters o\nFourty-eight 35-day-old Landrace pigs (6 litters) were used in 6 groups each consisting of 8 (4 males and 4 females). Lankacidin A was added in concentrations of 0 (control), 1, 2.5, 5, 10 and 20 ppm to antibacterial agent-free starter feed for the period from the start of the test through the age of 3 months and to the feed for testing pigs for performance of meat production (also free of antibacterial agents) for the period from the age of 4 months to the age of 6 months (end)."}},
  "data": [
    {"smiles": "CC(=O)OC1C=CC(C)=CCC(O)C=CC(C)=CC(NC(=O)C(C)=O)C2(C)C(=O)OC(C1)C(C)C2=O", "note": "(stereo not drawn) [Lankacidin A, lankacidin A]", "values": [
      {"measurement": "Number of mice from which the pathogen was detected/number of mice tested", "setting": "Treponema hyodysenteriae", "result": "1/5"},
      {"measurement": "Number of mice with cecal lesions/number of mice tested", "setting": "Treponema hyodysenteriae", "result": "0/5"},
      {"measurement": "Body weight at end", "setting": "[1]; 1 ppm in feed", "result": 111.6, "unit": "kg"},
      {"measurement": "Body weight at feed exchange", "setting": "[1]; 1 ppm in feed", "result": 34.0, "unit": "kg"},
      {"measurement": "Body weight gain for starter feed period", "setting": "[1]; 1 ppm in feed", "result": 24.8, "unit": "kg"},
      {"measurement": "Body weight gain for whole period", "setting": "[1]; 1 ppm in feed", "result": 102.4, "unit": "kg"},
      {"measurement": "Feed conversion for starter feed period", "setting": "[1]; 1 ppm in feed", "result": 1.94},
      {"measurement": "Feed conversion for whole period", "setting": "[1]; 1 ppm in feed", "result": 2.88},
      {"measurement": "Feed intake for starter feed period", "setting": "[1]; 1 ppm in feed", "result": 48.1, "unit": "kg"},
      {"measurement": "Feed intake for whole period", "setting": "[1]; 1 ppm in feed", "result": 294.9, "unit": "kg"},
      {"measurement": "Body weight at end", "setting": "[1]; 2.5 ppm in feed", "result": 113.5, "unit": "kg"},
      {"measurement": "Body weight at feed exchange", "setting": "[1]; 2.5 ppm in feed", "result": 34.6, "unit": "kg"},
      {"measurement": "Body weight gain for starter feed period", "setting": "[1]; 2.5 ppm in feed", "result": 25.4, "unit": "kg"},
      {"measurement": "Body weight gain for whole period", "setting": "[1]; 2.5 ppm in feed", "result": 104.4, "unit": "kg"},
      {"measurement": "Feed conversion for starter feed period", "setting": "[1]; 2.5 ppm in feed", "result": 1.87},
      {"measurement": "Feed conversion for whole period", "setting": "[1]; 2.5 ppm in feed", "result": 2.83},
      {"measurement": "Feed intake for starter feed period", "setting": "[1]; 2.5 ppm in feed", "result": 47.6, "unit": "kg"},
      {"measurement": "Feed intake for whole period", "setting": "[1]; 2.5 ppm in feed", "result": 295.3, "unit": "kg"},
      {"measurement": "Body weight at end", "setting": "[1]; 5 ppm in feed", "result": 118.3, "unit": "kg"},
      {"measurement": "Body weight at feed exchange", "setting": "[1]; 5 ppm in feed", "result": 36.1, "unit": "kg"},
      {"measurement": "Body weight gain for starter feed period", "setting": "[1]; 5 ppm in feed", "result": 26.9, "unit": "kg"},
      {"measurement": "Body weight gain for whole period", "setting": "[1]; 5 ppm in feed", "result": 109.1, "unit": "kg"},
      {"measurement": "Feed conversion for starter feed period", "setting": "[1]; 5 ppm in feed", "result": 1.77},
      {"measurement": "Feed conversion for whole period", "setting": "[1]; 5 ppm in feed", "result": 2.79},
      {"measurement": "Feed intake for starter feed period", "setting": "[1]; 5 ppm in feed", "result": 47.6, "unit": "kg"},
      {"measurement": "Feed intake for whole period", "setting": "[1]; 5 ppm in feed", "result": 304.3, "unit": "kg"},
      {"measurement": "Body weight at end", "setting": "[1]; 10 ppm in feed", "result": 120.5, "unit": "kg"},
      {"measurement": "Body weight at feed exchange", "setting": "[1]; 10 ppm in feed", "result": 36.7, "unit": "kg"},
      {"measurement": "Body weight gain for starter feed period", "setting": "[1]; 10 ppm in feed", "result": 27.6, "unit": "kg"},
      {"measurement": "Body weight gain for whole period", "setting": "[1]; 10 ppm in feed", "result": 111.4, "unit": "kg"},
      {"measurement": "Feed conversion for starter feed period", "setting": "[1]; 10 ppm in feed", "result": 1.73},
      {"measurement": "Feed conversion for whole period", "setting": "[1]; 10 ppm in feed", "result": 2.74},
      {"measurement": "Feed intake for starter feed period", "setting": "[1]; 10 ppm in feed", "result": 47.7, "unit": "kg"},
      {"measurement": "Feed intake for whole period", "setting": "[1]; 10 ppm in feed", "result": 305.2, "unit": "kg"},
      {"measurement": "Body weight at end", "setting": "[1]; 20 ppm in feed", "result": 123.4, "unit": "kg"},
      {"measurement": "Body weight at feed exchange", "setting": "[1]; 20 ppm in feed", "result": 37.4, "unit": "kg"},
      {"measurement": "Body weight gain for starter feed period", "setting": "[1]; 20 ppm in feed", "result": 28.8, "unit": "kg"},
      {"measurement": "Body weight gain for whole period", "setting": "[1]; 20 ppm in feed", "result": 114.2, "unit": "kg"},
      {"measurement": "Feed conversion for starter feed period", "setting": "[1]; 20 ppm in feed", "result": 1.71},
      {"measurement": "Feed conversion for whole period", "setting": "[1]; 20 ppm in feed", "result": 2.72},
      {"measurement": "Feed intake for starter feed period", "setting": "[1]; 20 ppm in feed", "result": 48.2, "unit": "kg"},
      {"measurement": "Feed intake for whole period", "setting": "[1]; 20 ppm in feed", "result": 310.6, "unit": "kg"},
      {"measurement": "growth and feed efficiency (in words)", "setting": "[1]", "result": "Swine growth was promoted proportionally to the increase of level of addition of lankacidin A, and the feed efficiency was improved accordingly"}
    ]},
    {"smiles": "CC(=O)C(=O)NC1C=C(C)C=CC(O)CC=C(C)C=CC(O)CC2OC(=O)C1(C)C(=O)C2C", "note": "(stereo not drawn) [Lankacidin C, lankacidin C]", "values": [
      {"measurement": "Number of mice from which the pathogen was detected/number of mice tested", "setting": "Treponema hyodysenteriae", "result": "1/5"},
      {"measurement": "Number of mice with cecal lesions/number of mice tested", "setting": "Treponema hyodysenteriae", "result": "0/5"},
      {"measurement": "Body weight at end", "setting": "[1]; 1 ppm in feed", "result": 102.4, "unit": "kg"},
      {"measurement": "Body weight at feed exchange", "setting": "[1]; 1 ppm in feed", "result": 32.7, "unit": "kg"},
      {"measurement": "Body weight gain for starter feed period", "setting": "[1]; 1 ppm in feed", "result": 25.4, "unit": "kg"},
      {"measurement": "Body weight gain for whole period", "setting": "[1]; 1 ppm in feed", "result": 95.0, "unit": "kg"},
      {"measurement": "Feed conversion for starter feed period", "setting": "[1]; 1 ppm in feed", "result": 1.95},
      {"measurement": "Feed conversion for whole period", "setting": "[1]; 1 ppm in feed", "result": 2.90},
      {"measurement": "Feed intake for starter feed period", "setting": "[1]; 1 ppm in feed", "result": 49.4, "unit": "kg"},
      {"measurement": "Feed intake for whole period", "setting": "[1]; 1 ppm in feed", "result": 275.6, "unit": "kg"},
      {"measurement": "Body weight at end", "setting": "[1]; 2.5 ppm in feed", "result": 104.6, "unit": "kg"},
      {"measurement": "Body weight at feed exchange", "setting": "[1]; 2.5 ppm in feed", "result": 34.2, "unit": "kg"},
      {"measurement": "Body weight gain for starter feed period", "setting": "[1]; 2.5 ppm in feed", "result": 26.9, "unit": "kg"},
      {"measurement": "Body weight gain for whole period", "setting": "[1]; 2.5 ppm in feed", "result": 97.2, "unit": "kg"},
      {"measurement": "Feed conversion for starter feed period", "setting": "[1]; 2.5 ppm in feed", "result": 1.83},
      {"measurement": "Feed conversion for whole period", "setting": "[1]; 2.5 ppm in feed", "result": 2.86},
      {"measurement": "Feed intake for starter feed period", "setting": "[1]; 2.5 ppm in feed", "result": 49.1, "unit": "kg"},
      {"measurement": "Feed intake for whole period", "setting": "[1]; 2.5 ppm in feed", "result": 278.0, "unit": "kg"},
      {"measurement": "Body weight at end", "setting": "[1]; 5 ppm in feed", "result": 109.0, "unit": "kg"},
      {"measurement": "Body weight at feed exchange", "setting": "[1]; 5 ppm in feed", "result": 36.9, "unit": "kg"},
      {"measurement": "Body weight gain for starter feed period", "setting": "[1]; 5 ppm in feed", "result": 29.5, "unit": "kg"},
      {"measurement": "Body weight gain for whole period", "setting": "[1]; 5 ppm in feed", "result": 101.7, "unit": "kg"},
      {"measurement": "Feed conversion for starter feed period", "setting": "[1]; 5 ppm in feed", "result": 1.72},
      {"measurement": "Feed conversion for whole period", "setting": "[1]; 5 ppm in feed", "result": 2.80},
      {"measurement": "Feed intake for starter feed period", "setting": "[1]; 5 ppm in feed", "result": 50.7, "unit": "kg"},
      {"measurement": "Feed intake for whole period", "setting": "[1]; 5 ppm in feed", "result": 284.6, "unit": "kg"},
      {"measurement": "Body weight at end", "setting": "[1]; 10 ppm in feed", "result": 110.2, "unit": "kg"},
      {"measurement": "Body weight at feed exchange", "setting": "[1]; 10 ppm in feed", "result": 37.5, "unit": "kg"},
      {"measurement": "Body weight gain for starter feed period", "setting": "[1]; 10 ppm in feed", "result": 30.1, "unit": "kg"},
      {"measurement": "Body weight gain for whole period", "setting": "[1]; 10 ppm in feed", "result": 102.8, "unit": "kg"},
      {"measurement": "Feed conversion for starter feed period", "setting": "[1]; 10 ppm in feed", "result": 1.70},
      {"measurement": "Feed conversion for whole period", "setting": "[1]; 10 ppm in feed", "result": 2.77},
      {"measurement": "Feed intake for starter feed period", "setting": "[1]; 10 ppm in feed", "result": 51.2, "unit": "kg"},
      {"measurement": "Feed intake for whole period", "setting": "[1]; 10 ppm in feed", "result": 284.8, "unit": "kg"},
      {"measurement": "growth and feed efficiency (in words)", "setting": "[1]", "result": "growth of pigs was increased in a manner almost proportional to the level of addition of lankacidin C, and accordingly the feed efficiency was improved"}
    ]}
  ]
}
